Reference: patent publication US6300501A, “Histidine-(N-benzyl glycinamide) inhibitors of protein farnesyl transferase” (Warner-Lambert Company, priority 1998, dated 2001)
Read-outs that look alike come from different tables or passages of the source.

Assays:
[1] = test system: H61 cells: NIH transformed 3T3 H-ras cells; test: Clonogenic assay (6 well plates, soft agar); type: cell-based; conditions: colonies counted after Day 13, read-out: Clonogenic Assay IC50
Procedure, shortened: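 Soft-agar colony formation: cells seeded in 0.3% agar top layer with 20% calf serum over a 0.6% agar base, drug or DMSO added at 4 µL per mL agar/medium. Incubated at 37 °C, 5% CO2; INT (1 mg/mL) added on day 13 to stain colonies.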

[2] = test system: ras farnesylation in ras-transformed cells; test: Gel shift assay; type: cell-based; conditions: ras-transformed cells, 18-hour incubation; read-out: Gel Shift (μM) MED (minimal effective dose to observe inhibition of ras farnesylation)
Procedure, shortened: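 Ras-transformed cells (2×10^6 per condition) treated with farnesylation inhibitor at varying concentrations for 18 h. Ras immunoprecipitated from lysates with Y13-259, resolved on 14% SDS gels and detected by pan-ras Western blot with ECL, farnesylated and unfarnesylated ras separating by mobility shift.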

[3] = target: T1, SF9 affinity purified rat farnesyl protein transferase (Rattus norvegicus, UniProt Q02293+Q04631); test: PFT inhibitory activity (radiolabeled farnesyl pyrophosphate, streptavidin bead assay); type: biochemical
T1 construct: made in house; host or cells: Sf9 insect cells (baculovirus system inferred from b7)
T1 sequence (Q02293 whole entry, one chain of several): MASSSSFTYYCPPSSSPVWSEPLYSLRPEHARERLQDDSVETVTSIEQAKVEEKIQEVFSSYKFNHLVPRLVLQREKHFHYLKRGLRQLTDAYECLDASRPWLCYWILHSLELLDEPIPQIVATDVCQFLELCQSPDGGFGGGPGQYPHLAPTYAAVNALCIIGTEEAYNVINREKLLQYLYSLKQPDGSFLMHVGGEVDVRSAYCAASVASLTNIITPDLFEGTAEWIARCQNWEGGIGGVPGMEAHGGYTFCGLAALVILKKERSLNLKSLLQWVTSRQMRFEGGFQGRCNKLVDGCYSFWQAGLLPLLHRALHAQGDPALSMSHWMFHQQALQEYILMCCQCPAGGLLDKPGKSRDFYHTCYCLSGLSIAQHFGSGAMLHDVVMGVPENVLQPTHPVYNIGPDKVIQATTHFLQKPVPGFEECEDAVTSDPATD
Procedure, shortened: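 HEPES pH 7.4 with 5 mM potassium phosphate (also run without), 20 μM ZnCl2, 5 mM DTT, 5 mM MgCl2, 0.1% PEG 8000; [3H]farnesyl pyrophosphate 134 nM and biotinyl-Ahe-TKCVIM peptide 0.2 μM final. Incubated 30 min at 30° C, stopped with acidic magnesium acetate/streptavidin bead buffer; bead-bound radioactivity counted.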

[4] = HEPES buffer pH 7.4, without 5 mM potassium phosphate, read-out: IC50 (μM) Hepes
[5] = HEPES buffer pH 7.4 containing 5 mM potassium phosphate, read-out: IC50 (μM) 5 mM K3 PO4 -2

Structure (SMILES)	IC50 [3, 4]	IC50 [3, 5]	IC50 ([1]; 312 h)	minimal effective concentration [2]	IC50 [1]
CC(C)(CNC(=O)CN(Cc1ccc(Cl)cc1)C(=O)[C@H](Cc1c[nH]cn1)NC(=O)OCc1ccccc1)c1ccccc1 [Example 31, (S)-[1-{(4-Chloro-benzyl)-[(2-methyl-2-phenyl-propylcarbamoyl)-methyl]-carbamoyl}-2-(1H-imidazole-4-yl)-ethyl]-carbamic Acid Benzyl Ester]	0.52 µM	0.014 µM	> 1000 nM	0.1 µM	
CC(CNC(=O)CN(Cc1ccc(OCc2ccccc2)cc1)C(=O)[C@H](Cc1c[nH]cn1)NC(=O)OCc1ccccc1)c1ccccc1Cl (stereo partly drawn) [Example 32, (S)-[1-((4-Benzyloxy-benzyl)-{[2-(2-chloro-phenyl)-propylcarbamoyl]-methyl}-carbamoyl)-2-(1H-imidazole-4-yl)-ethyl]-carbamic Acid Benzyl Ester]	0.32 µM	0.007 µM	360 nM	0.05 µM	
CC(CNC(=O)CN(Cc1ccc(OCc2ccncc2)cc1)C(=O)[C@H](Cc1c[nH]cn1)NC(=O)OCc1ccccc1)c1ccccc1 (stereo partly drawn) [Example 34, (S)-(2-(1H-Imidazole-4-yl)-1-{[(2-phenyl-propyl-carbamoyl)-methyl]-[4-(pyridin-4-ylmethoxy)-benzyl]-carbamoyl}-ethyl)-carbamic Acid Benzyl Aster]	0.097 µM	0.002 µM		0.05 µM	140 nM
CC(C)(CNC(=O)CN(Cc1cccnc1)C(=O)[C@H](Cc1c[nH]cn1)NC(=O)OCc1ccccc1)c1ccccc1 [Example 39, (S)-(2-(1H-Imidazole-4-yl)-1-{[(2-methyl-2-phenyl-propylcarbamoyl)-methyl]-pyridin-3-ylmethyl-carbamoyl}-ethyl)-carbamic Acid Benzyl Ester]	9.5 µM	0.1 µM	> 1000 nM	> 0.2 µM	
CC(C)(CNC(=O)CN(Cc1ccc(OCc2ccccn2)cc1)C(=O)[C@H](Cc1c[nH]cn1)NC(=O)OCc1ccccc1)c1ccccc1 [Example 40, (S)-(2-(1H-Imidazole-4-yl)-1-{[(2-methyl-2-phenyl-propylcarbamoyl)-methyl]-[4-(pyridin-2-ylmethoxy)-benzyl]-carbamoyl}-ethyl)-carbamic Acid Benzyl Ester]	0.12 µM	0.001 µM	190 nM	0.01 µM	
CN(Cc1ccccc1)C(=O)N[C@@H](Cc1c[nH]cn1)C(=O)N(CC(=O)NCC(C)(C)c1ccccc1)Cc1ccc(OCc2ccccc2)cc1 [Example 41, (S)-2-(3-Benzyl-3-methyl-ureido)-N-(4-benzyloxy-benzyl)-3-(1H-imidazole-4-yl)-N-[(2-methyl-2-phenyl-propylcarbamoyl)-methyl]-propionamide]	0.009 µM	0.004 µM	40 nM	0.05 µM	
Cc1ccccc1CN(CC(=O)NCC(C)c1ccccc1)C(=O)[C@H](Cc1c[nH]cn1)NC(=O)OCc1ccccc1 (some centres unmarked) [Example 43]	3.9 µM	0.038 µM		0.2 µM	> 1000 nM
COc1ccc(CN(CC(=O)NCC(C)(C)c2ccccc2)C(=O)[C@H](Cc2c[nH]cn2)NC(=O)OCc2ccccc2)cc1 [Example 44, (S)-(2-(1H-Imidazole-4-yl)-1-{(4-methoxy-benzyl)-[(2-methyl-2-phenyl-propylcarbamoyl)-methyl]-carbamoyl}-ethyl)-carbamic Acid Benzyl Ester]	0.3 µM	0.002 µM	360 nM	0.02 µM	
N#CC(CNC(=O)CN(Cc1ccc(OCc2ccccc2)cc1)C(=O)[C@H](Cc1c[nH]cn1)NC(=O)OCc1ccccc1)c1ccccc1 (some centres unmarked) [Example 45]	0.35 µM	0.0024 µM		0.05 µM	140 nM
CC(C)(CNC(=O)CN(Cc1ccc(OCc2ccncc2)cc1)C(=O)[C@H](Cc1c[nH]cn1)NC(=O)OCc1ccccc1)c1ccccc1 [Example 49, (S)-(2-(1H-Imidazole-4-yl)-1-{[(2-methyl-2-phenyl-propylcarbamoyl)-methyl]-[4-(pyridin-4-ylmethoxy)-benzyl]-carbamoyl}-ethyl)-carbamic Acid Benzyl Ester]	0.06 µM	0.009 µM	100 nM	0.05 µM	
CC(C)(CNC(=O)CN(Cc1ccc(OCc2cccnc2)cc1)C(=O)[C@H](Cc1c[nH]cn1)NC(=O)OCc1ccccc1)c1ccccc1 [Example 50, (S)-(2-(1H-Imidazole-4-yl)-1-{[(2-methyl-2-phenyl-propylcarbamoyl)-methyl]-[4-(pyridin-3-ylmethoxy)-benzyl]-carbamoyl}-ethyl)-carbamic Acid Benzyl Ester]	0.089 µM	0.001 µM	270 nM	0.05 µM	

Further lines, with some results ahead:

IC50 [3, 4]	IC50 [3, 5]	Structure (SMILES)	IC50 ([1]; 312 h)	minimal effective concentration [2]	IC50 [1]
2.6 µM	0.043 µM	CC(CNC(=O)CN(Cc1ccccc1Cl)C(=O)[C@H](Cc1c[nH]cn1)NC(=O)OCc1ccccc1)c1ccccc1 (stereo partly drawn) [Example 28, (S)-[1-{(2-Chloro-benzyl)-[(2-phenyl-propylcarbamoyl)-methyl]-carbamoyl}-2-(1H-imidazole-4-yl)-ethyl]-carbamic Acid Benzyl Ester]	600 nM	0.2 µM	
0.78 µM	0.016 µM	CC(CNC(=O)CN(Cc1cccc(Cl)c1)C(=O)[C@H](Cc1c[nH]cn1)NC(=O)OCc1ccccc1)c1ccccc1 (stereo partly drawn) [Example 30, (S)-[1-{(3-Chloro-benzyl)-[(2-phenyl-propylcarbamoyl)-methyl]-carbamoyl}-2-(1H-imidazole-4-yl)-ethyl]-carbamic Acid Benzyl Ester]	> 1000 nM	0.1 µM	
0.5 µM	0.009 µM	COc1ccccc1CN(CC(=O)NCC(C)c1ccccc1)C(=O)[C@H](Cc1c[nH]cn1)NC(=O)OCc1ccccc1 (stereo partly drawn) [Example 33, (S)-(2-(1H-Imidazole-4-yl)-1-{(2-methoxy-benzyl)-[(2-phenyl-propylcarbamoyl)-methyl]-carbamoyl}-ethyl)-carbamic Acid Benzyl Ester]	360 nM	0.05 µM	
2.1 µM	0.009 µM	COc1cccc(CN(CC(=O)NCC(C)c2ccccc2)C(=O)[C@H](Cc2c[nH]cn2)NC(=O)OCc2ccccc2)c1 (stereo partly drawn) [Example 35, (S)-(2-(1H-Imidazole-4-yl)-1-{(3-methoxy-benzyl)-[(2-phenyl-propylcarbamoyl)-methyl]-carbamoyl}-ethyl)-carbamic Acid Benzyl Ester]	> 1000 nM	0.2 µM	
0.45 µM	0.007 µM	CC(CNC(=O)CN(Cc1ccc(OCc2cccnc2)cc1)C(=O)[C@H](Cc1c[nH]cn1)NC(=O)OCc1ccccc1)c1ccccc1 (stereo partly drawn) [Example 36, (S)-(2-(1H-Imidazole-4-yl)-1-{[(2-phenyl-propylcarbamoyl)-methyl]-[4-(pyridin-3-ylmethoxy)-benzyl]-carbamoyl}-ethyl)-carbamic Acid Benzyl Ester]	320 nM	≥ 0.05 µM	
1.6 µM	0.013 µM	CC(CNC(=O)CN(Cc1ccc(C(F)(F)F)cc1)C(=O)[C@H](Cc1c[nH]cn1)NC(=O)OCc1ccccc1)c1ccccc1 (stereo partly drawn) [Example 38, (S)-{2-(1H-Imidazole-4-yl)-1-[[(2-phenyl-propylcarbamoyl)-methyl]-(4-trifluoromethyl-benzyl)-carbamoyl]-ethyl}-carbamic Acid Benzyl Ester]	220 nM	0.2 µM	
0.6 µM	0.005 µM	CC(C)(CNC(=O)CN(Cc1ccccc1)C(=O)[C@H](Cc1c[nH]cn1)NC(=O)OCc1ccccc1)c1ccccc1 [Example 42, (S)-[1-{Benzyl-[(2-methyl-2-phenyl-propylcarbamoyl)-methyl]-carbamoyl}-2-(1H-imidazole-4-yl)-ethyl]-carbamic Acid Benzyl Ester]	510 nM	0.05 µM	
0.62 µM	0.035 µM	Cc1cccc(CN(CC(=O)NCC(C)c2ccccc2)C(=O)[C@H](Cc2c[nH]cn2)NC(=O)OCc2ccccc2)c1 (stereo partly drawn) [Example 47, (S)-(2-(1H-Imidazole-4-yl)-1-{(3-methyl-benzyl)-[(2-phenyl-propylcarbamoyl)-methyl]-carbamoyl}-ethyl)-carbamic Acid Benzyl Ester]	730 nM	0.05 µM	
0.88 µM	0.004 µM	CC(CNC(=O)CN(Cc1ccc(-c2ccccc2)cc1)C(=O)[C@H](Cc1c[nH]cn1)NC(=O)OCc1ccccc1)c1ccccc1 (stereo partly drawn) [Example 51, (S)-[1-{Biphenyl-4-ylmethyl-[(2-phenyl-propylcarbamoyl)-methyl]-carbamoyl}-2-(1H-imidazole-4-yl)-ethyl]-carbamic Acid Benzyl Ester]	250 nM	≥ 0.05 µM	
